# Measured values published in patent publication US9902752B2, “5-fluorouracil derivatives” (B. Braun Melsungen AG, priority 2012, dated 2018).
# Where two headings read alike, the source gives them in different places. {19c} = modification given as compound (19c) in the publication; {25} = modification given as compound (25) in the publication; {Cy3} = Cy-3 fluorescent dye
# Assays:
# [1] = 1N aq. HCl/MeCN, 1:1 (v/v); cited from earlier work
# [2] = Lipophilicity as chromatographic mobility, RP-18 HPLC retention time; format: physicochemical; conditions: MeCN/0.1 M Et3NH+OAc− (35:65, v/v, pH 7.0)
# Experimental: RP-18 HPLC was carried out on a 250×4 mm RP-18 column (Merck, Germany) on a Merck-Hitachi HPLC apparatus with one pump (Model 655A-12) connected with a proportioning valve, a variable wavelength monitor (Model 655 A), a controller (Model L-5000), and an integrator (Model D-2000). Solvent: MeCN/0.1 M Et3NH^+OAc^− (35:65, v/v, pH 7.0).
# The lipophilicity of various 5-fluorouridine derivatives has been studied since the lipophilicity has inter alia an influence on the incorporation into oligo(2′-deoxynucleotides). The lipophilicity of the novel hydrophobic nucleoside derivatives has been studied in different by two ways: (i) log P values of the compounds were calculated (Table 4) and compared with those of the unmodified nucleoside 1a, (ii) the chromatographic mobilities of the compounds were measured in terms of retention times (tR in min) by RP-18 HPLC.
# [3] = Bilayer insertion of lipophilic oligonucleotides (fluorescence scans); format: physicochemical; conditions: for incorporation into the artificial bilayer: brightness of the layers, 25 min incubation; for retention in the bilayer after perfusions: perfusions of 60 s each
# Experimental: The incorporation of the oligonucleotides into artificial bilayers was performed at a lipid mixture of 1-palmitoyl-2-oleyl-sn-glycero-3-phosphoethanolamine (POPE) and 1-palmitoyl-2-oleyl-sn-glycero-3-phosphocholine (POPC) (8:2, w/w, 100 mg/ml of n-decane). For the preparation of the horizontal bilayers, planar slides (Ionovation GmbH, D-Osnabrück) were used. These slides contain chambers for cis- and trans compartments as well as electrode access (see FIG. 1). The main body of the slides contains of PTFE foil (thickness, 25 μm) with an aperture of ˜100 μm diameter. This foil separates the chamber into the cis- and trans compartments which are only connected by the aperture. After filling of the chamber with buffer (250 mM KCl, 10 mM MOPS/TRIS, pH 7), the cis- and trans compartments were linked with Ag/AgCl electrodes—embedded in agarose/3 M KCl). Then, a soln. of the POPC/POPE lipid mixture (0.2 μl) is applied onto the aperture of the PTFE foil using a Hamilton syringe (Hamilton, CH-Bonaduz). A small Faraday cage shields the bilayer and the electrodes from HF-electrical noise. Next, a bilayer is made-up automatically using a perfusion system (Bilayer Explorer V01, Ionovation GmbH, D-Osnabrück). The formation of a stable bilayer was monitored both, optically using a laser scanning microscope (Insight Cell 3D, Evotec Technologies GmbH, D-Hamburg) as well as electrically by capacity measurements. When a stable bilayer had been obtained (capacity, […]), the corresponding oligonucleotide soln. (50 nM, 4 μl) was injected into the cis compartment of the chip. During an incubation time of 25 min the intactness of the bilayer was electro-physiologically controlled using a headstage EPC 10 USB with a patch clamp amplifier (software: Patchmaster, HEKA Elektronik Dr. Schulze GmbH, D-Lambrecht). The optical pictures of fluorescence fluctuations were obtained with a confocal laser scanning microscope (Insight Cell 3D, Evotec Technologies GmbH, D-Hamburg), equipped with a He—Ne laser (543 nm), a 40× water-immersion objective (UApo 340, 40×, NA=1.15, Olympus, 3-Tokyo), and an Avalanche photodiode detector (SPCM-AQR-13-FC, Perkin-Elmer Optoelectronics, Fremont, USA). Fluorescence irradiation was obtained with a laser power of 200±5 μW. 2D and 3D scans were performed by scanning the confocal spot in XY direction with a rotating beam scanner and movement of the objective in Z direction. The movement in both directions was piezo controlled which allows a nano-meter precise positioning. For the 2D pictures (Z-scans, FIGS. 2 and 3) the confocal plane was moved in 100 nm steps. […]
# [4] = Diffusion times of oligonucleotides in the presence of a lipid bilayer; format: physicochemical
# Experimental: The incorporation of the oligonucleotides into artificial bilayers was performed at a lipid mixture of 1-palmitoyl-2-oleyl-sn-glycero-3-phosphoethanolamine (POPE) and 1-palmitoyl-2-oleyl-sn-glycero-3-phosphocholine (POPC) (8:2, w/w, 100 mg/ml of n-decane). For the preparation of the horizontal bilayers, planar slides (Ionovation GmbH, D-Osnabrück) were used. These slides contain chambers for cis- and trans compartments as well as electrode access (see FIG. 1). The main body of the slides contains of PTFE foil (thickness, 25 μm) with an aperture of ˜100 μm diameter. This foil separates the chamber into the cis- and trans compartments which are only connected by the aperture. After filling of the chamber with buffer (250 mM KCl, 10 mM MOPS/TRIS, pH 7), the cis- and trans compartments were linked with Ag/AgCl electrodes—embedded in agarose/3 M KCl). Then, a soln. of the POPC/POPE lipid mixture (0.2 μl) is applied onto the aperture of the PTFE foil using a Hamilton syringe (Hamilton, CH-Bonaduz). […] The formation of a stable bilayer was monitored both, optically using a laser scanning microscope (Insight Cell 3D, Evotec Technologies GmbH, D-Hamburg) as well as electrically by capacity measurements. […] The optical pictures of fluorescence fluctuations were obtained with a confocal laser scanning microscope (Insight Cell 3D, Evotec Technologies GmbH, D-Hamburg), equipped with a He—Ne laser (543 nm), a 40× water-immersion objective (UApo 340, 40×, NA=1.15, Olympus, 3-Tokyo), and an Avalanche photodiode detector (SPCM-AQR-13-FC, Perkin-Elmer Optoelectronics, Fremont, USA). Fluorescence irradiation was obtained with a laser power of 200±5 μW. […]
# From the fluorescence signals of single molecules which pass the excitation volume, the diffusion constants can be calculated. In order to determine the diffusion times of the fluorescent oligonucleotides within and near the bilayer, they were measured at five different positions above, below and within the layer. […]
# The diffusion times (μs) of 41 and 42 were measured, both without and in the presence of an artificial bilayer. […]
# [5] = Free diffusion times of oligonucleotides (without bilayer); format: physicochemical; conditions: diluted 50 nM oligomer solution
# Experimental: From the fluorescence signals of single molecules which pass the excitation volume, the diffusion constants can be calculated. In order to determine the diffusion times of the fluorescent oligonucleotides within and near the bilayer, they were measured at five different positions above, below and within the layer. At each point five measurements for 30 s, each, were taken. In summary, each measuring protocol was as follows: (i) a reference scan of the stable (empty) bilayer; (ii) addition of the sample with 25 min of incubation, followed by a scan series; (iii) additional scan series, each after a 1., 2., and 3. perfusion (60 s, each).
# The diffusion times (μs) of 41 and 42 were measured, both without and in the presence of an artificial bilayer. For the determination of the free diffusion times the corresponding oligomer solution (50 nM) was diluted so that in the confocal measuring volume (˜10^−15 l) only one fluorescent molecule was present. Each measurement was performed ten-fold for 30 s, each. In order to determine the diffusion times of the lipophilized oligonucleotides (41, 42) in the presence of a bilayer five measuring positions above, beneath and in the bilayer were chosen. This was necessary because the bilayer is floating within certain limits, which makes it difficult to target it most exactly (FIG. 5, measuring points 1-5). […]
# [6] = pKBH+ value of the nucleoside; format: physicochemical
# [7] = cited from earlier work
# [8] = measuring point 3, after 1. perfusion
compound,measurement,setting,value
"CCCC1(CCC)OC2[C@@H](O1)[C@@H](CO)O[C@H]2n1cc(F)c(=O)[nH]c1=O (stereo partly shown) [Compound 19b, 5-Fluoro-2,3′-O-(1-propylbutylidene)uridine]","acidic stability at the ketal group, T",[1],130 min
"CC(C)=CCC/C(C)=C/CC/C(C)=C/Cn1c(=O)c(F)cn([C@@H]2O[C@H](CO)[C@@H](O)[C@H]2O)c1=O [Compound 23, 1-((2R,3R,4S,5R)-3,4-dihydroxy-5-(hydroxymethyl)tetrahydrofuran-2-yl)-5-fluoro-3-((2E,6E)-3,7,11-trimethyldodeca-2,6,10-trien-1-yl)pyrimidine-2,4(1H,3H)-dione]",RP-18 HPLC tR,[2],27 min
"5′-d[(19c)-(Cy-3)-TAG GTC AAT ACT]. (DNA TAGGTCAATACT; DNA, 5' {19c}-{Cy3}, backbone not given here) [Oligomer 42]",incorporation into the artificial bilayer,[3],better inserted
same,retention in the bilayer after perfusions,[3],do not lead to a significant removal
same,Diffusion time in the presence of a bilayer,[4]; [8],"75952 ± 8201, after 1 perfusion μs"
same,Diffusion time in the presence of a bilayer,"[4]; measuring point 3, after 3. perfusion","19891 ± 3266, after 3. perfusion μs"
same,Free diffusion time,[5],390.39 ± 249.05 μs
"CC(C)=CCC/C(C)=C/CC/C(C)=C/Cn1c(=O)c(F)cn([C@@H]2O[C@H](CO)[C@H]3OC(C)(C)O[C@H]32)c1=O [Compound 24, 5-Fluoro-1-((3aR,4R,6R,6aR)-6-(hydroxymethyl)-2,2-dimethyltetrahydrofuro-[3,4-d][1,3]dioxol-4-yl)-3-((2E,6E)-3,7,11-trimethyldodeca-2,6,10-trien-1-yl)pyrimidine-2,4(1H,3H)-dione]",RP-18 HPLC tR,[2],24 min
"O=c1[nH]c(=O)n([C@@H]2O[C@H](CO)[C@@H](O)[C@H]2O)cc1F [Compound 1a, 5-Fluorouridine, reference compound]",RP-18 HPLC tR,[2],1 min
same,pKBH+,[6],8.0±0.1
"5′-d[(25)-(Cy-3)-TAG GTC AAT ACT] (DNA TAGGTCAATACT; DNA, 5' {25}-{Cy3}, backbone not given here) [Oligomer 41]",incorporation into the artificial bilayer,[3],successfully incorporated
same,retention in the bilayer after perfusions,[3],brightness of the layer decreases after two perfusions
same,Diffusion time in the presence of a bilayer,[4]; [8],"33547 ± 16751, after 1. perfusion μs"
same,Free diffusion time,[5],279.67 ± 141.08 μs
"O=c1[nH]cc(F)c(=O)[nH]1 [fluorouracil, 5-fluorouracil]",half life,"[7]; with uracil (UFT, DPD inhibition)",10 to 14 h
same,half life,[7]; without uracil,0.167 to 0.5 h
"CCCC1(CCC)OC2C(O1)[C@@H](CO)O[C@H]2n1cc(F)c(=O)n(C/C=C(\C)CC/C=C(\C)CCC=C(C)C)c1=O (stereo partly drawn) [Compound 25, 5-Fluoro-1-((3aR,4R,6R,6aR)-6-(hydroxymethyl)-2,2-dipropyitetrahydrofuro-[3,4-d][1,3]dioxol-4-yl)-3-((2E,6E)-3,7,11-trimethyldodeca-2,6,10-trien-1-yl)pyrimidine-2,4(1H,3H)-dione]",RP-18 HPLC tR,[2],87 min
"CC1(C)O[C@@H]2[C@H](O1)[C@@H](CO)O[C@H]2n1cc(F)c(=O)[nH]c1=O [Compound 19a, 5-Fluoro-1-((3aR,4R,6R,6aR)-6-(hydroxymethyl)-2,2-dimethyltetrahydrofuro[3,4-d][1,3]dioxol-4-yl)pyrimidine-2,4(1H,3H)-dione]",melting point,,196 to 197 °C
"CCCCCCCCCC1(CCCCCCCCC)O[C@@H]2[C@H](O1)[C@@H](CO)O[C@H]2n1cc(F)c(=O)[nH]c1=O [Compound 19c, 5-Fluoro-1-((3aR,4R,6R,6aR)-6-(hydroxymethyl)-2,2-dinonyltetrahydrofuro[3,4-d][1,3]dioxol-4-yl)pyrimidine-2,4(1H,3H)-dione]",RP-18 HPLC tR,[2],>600 min
